Results as given in the NIST ThermoML archive (doi:10.1016/j.jct.2005.10.011).
± gives the expanded uncertainty stated by the source.

How the values were obtained:
[1] = 298.15 K, 101.33 kPa, Liquid; for viscosity: Capillary tube (Ostwald / Ubbelohde) method
[2] = isobaric coefficient of expansion; conditions: 298.15 K; 101.33 kPa; Liquid; vibrating tube densimeter
[3] = xn = mol fraction of the nth substance listed; conditions: 298.15 K, 101 kPa, Liquid

CCCCCCCC [octane]
Conditions | isobaric coefficient of expansion | mass density [kg/m3] | viscosity [mPa·s]
[1] | – | 698.59 ± 1.7 | 0.514 ± 0.007
[2] | 0.00115 ± 2e-05 1/K | – | –

CCCCC [pentane] + Cc1ccccc1
[3]
Conditions | mass density [kg/m3]
x2 = 0.0415 | 629.87 ± 0.96
x2 = 0.2011 | 668.27 ± 0.9
x2 = 0.2799 | 687.21 ± 0.87
x2 = 0.3647 | 707.61 ± 0.84
x2 = 0.4341 | 724.3 ± 0.81
x2 = 0.6011 | 764.45 ± 0.75
x2 = 0.6821 | 783.95 ± 0.72
x2 = 0.7502 | 800.32 ± 0.7
x2 = 0.8213 | 817.43 ± 0.67
x2 = 0.9137 | 839.65 ± 0.65

CCCCC [pentane]
Conditions | isobaric coefficient of expansion | mass density [kg/m3] | viscosity [mPa·s]
[1] | – | 621.22 ± 0.99 | 0.216 ± 0.005
[2] | 0.0016 ± 3e-05 1/K | – | –

CCCCCC [hexane] + Cc1ccccc1
[3]
Conditions | mass density [kg/m3]
x2 = 0.0406 | 657.47 ± 0.92
x2 = 0.2028 | 690.93 ± 0.86
x2 = 0.2804 | 706.95 ± 0.84
x2 = 0.3596 | 723.29 ± 0.81
x2 = 0.4423 | 740.35 ± 0.79
x2 = 0.5997 | 772.81 ± 0.74
x2 = 0.6757 | 788.5 ± 0.71
x2 = 0.7597 | 805.83 ± 0.69
x2 = 0.8412 | 822.63 ± 0.67
x2 = 0.9199 | 838.87 ± 0.65

CCCCCC [hexane]
Conditions | isobaric coefficient of expansion | mass density [kg/m3] | viscosity [mPa·s]
[1] | – | 655.07 ± 0.93 | 0.295 ± 0.005
[2] | 0.00138 ± 3e-05 1/K | – | –

Cc1ccccc1 [toluene]
Conditions | isobaric coefficient of expansion | mass density [kg/m3] | viscosity [mPa·s]
[1] | – | 862.19 ± 0.62 | 0.552 ± 0.006
[2] | 0.00109 ± 2e-05 1/K | – | –

Cc1ccccc1 [toluene] + CCCCCCC
[3]
Conditions | mass density [kg/m3]
x1 = 0.0398 | 678.24 ± 26
x1 = 0.1999 | 693.04 ± 25
x1 = 0.2791 | 721.62 ± 23
x1 = 0.3596 | 736.18 ± 22
x1 = 0.4416 | 764.46 ± 20
x1 = 0.6048 | 779.21 ± 19
x1 = 0.6825 | 793.71 ± 18
x1 = 0.7593 | 808.12 ± 18
x1 = 0.8463 | 823.09 ± 17
x1 = 0.9132 | 837.25 ± 16

CCCCCCCCCC [decane]
Conditions | isobaric coefficient of expansion | mass density [kg/m3] | viscosity [mPa·s]
[1] | – | 726.29 ± 0.81 | 0.861 ± 0.008
[2] | 0.00104 ± 2e-05 1/K | – | –

CCCCCCCCCC [decane] + Cc1ccccc1
[3]
Conditions | mass density [kg/m3]
x2 = 0.0405 | 730.61 ± 0.8
x2 = 0.1975 | 740.67 ± 0.78
x2 = 0.2817 | 747.82 ± 0.77
x2 = 0.3619 | 755.75 ± 0.76
x2 = 0.4394 | 764.48 ± 0.75
x2 = 0.6 | 785.86 ± 0.72
x2 = 0.6811 | 798.34 ± 0.7
x2 = 0.7615 | 811.84 ± 0.68
x2 = 0.84 | 826.07 ± 0.66
x2 = 0.92 | 841.69 ± 0.64

CCCCCCCCC [nonane]
Conditions | isobaric coefficient of expansion | mass density [kg/m3] | viscosity [mPa·s]
[1] | – | 714.01 ± 1.7 | 0.665 ± 0.009
[2] | 0.00108 ± 2e-05 1/K | – | –

CCCCCCCCC [nonane] + Cc1ccccc1
[3]
Conditions | mass density [kg/m3]
x2 = 0.0396 | 719.17 ± 1
x2 = 0.1938 | 731.3 ± 0.97
x2 = 0.2815 | 739.97 ± 0.94
x2 = 0.3621 | 749.08 ± 0.92
x2 = 0.4429 | 759.3 ± 0.89
x2 = 0.6 | 782.29 ± 0.82
x2 = 0.6627 | 792.62 ± 0.79
x2 = 0.7595 | 809.87 ± 0.75
x2 = 0.8399 | 825.37 ± 0.71
x2 = 0.9168 | 841.23 ± 0.67

CCCCCCC [heptane]
Conditions | isobaric coefficient of expansion | mass density [kg/m3] | viscosity [mPa·s]
[1] | – | 679.69 ± 0.89 | 0.395 ± 0.005
[2] | 0.00124 ± 2e-05 1/K | – | –

CCCCCCCC [octane] + Cc1ccccc1
[3]
Conditions | mass density [kg/m3]
x2 = 0.0398 | 692.41 ± 1
x2 = 0.1999 | 718.64 ± 0.98
x2 = 0.2791 | 731.62 ± 0.95
x2 = 0.3596 | 744.8 ± 0.92
x2 = 0.4416 | 758.23 ± 0.89
x2 = 0.6048 | 784.96 ± 0.82
x2 = 0.6825 | 797.69 ± 0.78
x2 = 0.7593 | 810.27 ± 0.75
x2 = 0.8463 | 824.52 ± 0.71
x2 = 0.9132 | 835.49 ± 0.67
